From patent US12116358B2, “Substituted indoles and methods of use thereof” (EPIZYME, INC., priority 2018, dated 2024)
Like-named read-outs stand apart in the source and are kept apart here.

Columns and labels:
SETD2(1434-1711) = molecular target: T1, SETD2(1434-1711) (Homo sapiens, UniProt Q9BYW2); assay: SETD2 (1434-1711) assay; format: biochemical; settings: read-out: SETD2 (1434-1711)
T1 construct: SETD2 (1434-1711) Assay; catalogue N/A
T1 sequence (Q9BYW2 1434-1711): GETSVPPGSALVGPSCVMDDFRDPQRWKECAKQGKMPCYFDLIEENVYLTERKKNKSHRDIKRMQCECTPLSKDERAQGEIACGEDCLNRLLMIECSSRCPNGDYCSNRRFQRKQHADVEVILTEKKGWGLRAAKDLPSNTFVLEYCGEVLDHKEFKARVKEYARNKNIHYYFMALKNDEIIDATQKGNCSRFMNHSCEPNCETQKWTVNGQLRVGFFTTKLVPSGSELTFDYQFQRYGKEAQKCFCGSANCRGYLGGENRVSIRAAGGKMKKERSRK

H3K36me3 in A549 cells = assay: In-Cell Western (ICW) assay of SETD2 inhibitors (A549 assay); format: cell-based, human; settings: A549 cells, read-out: SETD2 A549
Method in brief: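 A549 cells seeded at 4,000/well onto compound and incubated 3 days at 37° C. Methanol-fixed cells stained overnight at 4° C with anti-H3K36me3 (1:1000), then IRDye 800CW secondary with DRAQ5 DNA counterstain. Plates read by Licor imaging at 700 and 800 channels.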

IC50 (SETD2(1434-1711))	IC50 (H3K36me3 in A549 cells)	IC50 (H3K36me3 in A549 cells; Homo sapiens)	Compound
0.1 µM	3 µM		Cc1ccc(F)c2cc(C(=O)Nc3ccc4cnc(CN5CCN(C)CC5)cc4c3)[nH]c12 [compound 409]
0.7 µM	3 µM		Cc1ccc(F)c2cc(C(=O)Nc3cncc(N4CCN(C)CC4)c3)[nH]c12 [compound 410]
0.8 µM	3 µM		Cc1ccc(F)c2cc(C(=O)Nc3cccc(N4C5CCC4C(=O)N(C)C5)c3)[nH]c12 (stereo not shown) [compound 411]
0.1 µM	3.1 µM		Cc1cc(C(=O)NC2CCN(C)CC2)cnc1C(NC(=O)c1cc2c(F)ccc(C)c2[nH]1)C1CC1 (stereo not shown) [compound 412]
0.03 µM	3.1 µM		Cc1ccc(F)c2cc(C(=O)Nc3cccc(N4CCC(NCCN)CC4)c3)[nH]c12 [compound 413]
0.08 µM	3.2 µM		Cc1cc(CCN2CCN(C)CC2)cnc1C(CCc1ccccc1)NC(=O)c1cc2c(F)ccc(C)c2[nH]1 (stereo not shown) [compound 414]
0.1 µM		3.2 µM	Cc1ccc(F)c2cc(C(=O)Nc3cccc4c(N5CCC(N(C)C)CC5)[nH]nc34)[nH]c12 [compound 415]
0.04 µM		3.3 µM	Cc1ccc(F)c2cc(C(=O)Nc3ccc4nc(NC5CCNCC5)ncc4c3)[nH]c12 [compound 416]
0.9 µM	3.4 µM		Cc1ccc(F)c2cc(C(=O)Nc3cccc(N4CCN(C(C)c5ccccc5)CC4)c3)[nH]c12 (stereo not shown) [compound 417]
0.1 µM	3.4 µM		Cc1ccc(F)c2cc(C(=O)Nc3cccc(CCN)c3)[nH]c12 [compound 418]
0.8 µM		3.4 µM	Cc1cccc2cc(C(=O)NC(c3ncccc3Cl)C3CC3)[nH]c12 (stereo not shown) [compound 419]
2.4 µM	3.6 µM		Cc1cccnc1C(CCC(=O)N1CCOCC1)NC(=O)c1cc2cccc(C)c2[nH]1 (stereo not shown) [compound 420]
0.4 µM	3.6 µM		Cc1ccc(F)c2cc(C(=O)Nc3cccc(CN4CCN(C)CC4)c3)[nH]c12 [compound 421]
1.5 µM	3.7 µM		Cc1ccc(F)c2cc(C(=O)Nc3cccc(N4C5COCC4C5)c3)[nH]c12 [compound 422]
0.6 µM	3.8 µM		Cc1cc(C2CCC(NC(=O)Cc3cccnc3)CC2)cnc1C(NC(=O)c1cc2cccc(C)c2[nH]1)C1CC1 (stereo not shown) [compound 423]
0.7 µM	3.8 µM		Cc1ccc(F)c2cc(C(=O)NC(c3nn4ccccc4c3C)C3CC3)[nH]c12 (stereo not shown) [compound 424]
0.3 µM	3.9 µM		Cc1ccc(F)c2cc(C(=O)Nc3cccc(C4CCCN4)c3)[nH]c12 (stereo not shown) [compound 425]
0.4 µM	3.9 µM		Cc1cc(-c2ccc(N)nc2)cnc1C(NC(=O)c1cc2cccc(C)c2[nH]1)C1CC1 (stereo not shown) [compound 426]
0.4 µM	4 µM		Cc1cccc2cc(C(=O)Nc3ccc4ncc(CN(C)C)n4c3)[nH]c12 [compound 427]
1 µM		4.1 µM	Cc1ccc(F)c2cc(C(=O)Nc3cccc(-c4ncc[nH]4)c3)[nH]c12 [compound 428]
0.1 µM		4.3 µM	Cc1cccc2cc(C(=O)Nc3cccc(N4CCN(S(=O)(=O)C5CCC(N)CC5)CC4)c3)[nH]c12 (stereo not shown) [compound 429]

IC50 (SETD2(1434-1711))	IC50 (H3K36me3 in A549 cells)	IC50 (H3K36me3 in A549 cells; Homo sapiens)	Compound
0.6 µM	4.4 µM		Cc1cc(OCC(O)CNCc2cccnc2)cnc1C(NC(=O)c1cc2cccc(C)c2[nH]1)C1CC1 (stereo not shown) [compound 430]
2.1 µM	4.4 µM		C=Cc1ccc(C)c2[nH]c(C(=O)NC(CCC(=O)N3CCOCC3)c3ncccc3C)cc12 (stereo not shown) [compound 431]
0.7 µM		4.5 µM	Cc1c(C#N)ccnc1C(NC(=O)c1cc2c(F)ccc(C)c2[nH]1)C1CC1 (stereo not shown) [compound 432]
0.03 µM		4.6 µM	Cc1ccc(F)c2cc(C(=O)Nc3cccc(N4CCC(NCc5cnc[nH]5)CC4)c3)[nH]c12 [compound 433]
4.3 µM	4.6 µM		Cc1cccnc1C(CCC(=O)N1CCC(O)CC1)NC(=O)c1cc2cccc(C)c2[nH]1 (stereo not shown) [compound 434]
0.7 µM		4.7 µM	Cc1cc(CCN2CCN(C)CC2)cnc1C(NC(=O)c1cc2cccc(C)c2[nH]1)C1CC1 (stereo not shown) [compound 435]
0.3 µM	4.7 µM		Cc1ccc(F)c2cc(C(=O)Nc3cccc(N4CC5CCC(C4)C5N(C)C)c3)[nH]c12 (stereo not shown) [compound 436]
0.6 µM	4.8 µM		Cc1cccc2cc(C(=O)Nc3ccc4cnccc4c3)[nH]c12 [compound 437]
0.3 µM		4.9 µM	Cc1ccc(F)c2cc(C(=O)Nc3cccc(C4CCCCN4)c3)[nH]c12 (stereo not shown) [compound 438]
0.2 µM	5 µM		Cc1cccc2cc(C(=O)Nc3cccc(N4CCC(NC(=O)CN)CC4)c3)[nH]c12 [compound 439]
0.8 µM		5 µM	Cc1cc(N2CCN(CCCc3cccnc3)CC2)cnc1C(NC(=O)c1cc2cccc(C)c2[nH]1)C1CC1 (stereo not shown) [compound 440]
2.1 µM		5.1 µM	Cc1ccc(CN2CCOCC2)cc1NC(=O)c1cc2cccc(C)c2[nH]1 [compound 442]
0.6 µM		5.1 µM	Cc1cccc2cc(C(=O)Nc3cccc(N4CCN(S(=O)(=O)CCN)CC4)n3)[nH]c12 [compound 443]
0.4 µM	5.2 µM		Cc1ccc(F)c2cc(C(=O)Nc3cccc(-c4cc(N)n[nH]4)c3)[nH]c12 [compound 444]
1.4 µM		5.2 µM	Cc1cc(-c2ncc[nH]2)cnc1C(NC(=O)c1cc2cccc(C)c2[nH]1)C1CC1 (stereo not shown) [compound 445]
6.3 µM		5.4 µM	Cc1cccnc1C(CCC(=O)N(C)C)NC(=O)c1cc2cccc(C)c2[nH]1 (stereo not shown) [compound 446]
2.8 µM	5.5 µM		Cc1cc(CCNC(=O)Cc2cccnc2)cnc1C(NC(=O)c1cc2cccc(C)c2[nH]1)C1CC1 (stereo not shown) [compound 447]
0.9 µM	5.5 µM		Cc1cccc2cc(C(=O)Nc3ccc4ccc(C(=O)N5CCN(C)CC5)cc4c3)[nH]c12 [compound 448]
0.2 µM		5.5 µM	Cc1cccc2cc(C(=O)Nc3cccc(N4CCN(S(=O)(=O)CCN)CC4)c3)[nH]c12 [compound 449]
2.3 µM		5.6 µM	Cc1ccnnc1C(NC(=O)c1cc2c(F)ccc(C)c2[nH]1)C1CC1 (stereo not shown) [compound 450]
0.4 µM		5.6 µM	Cc1cc(C(=O)N[C@H]2CC[C@H]2N)cnc1C(NC(=O)c1cc2cccc(C)c2[nH]1)C1CC1 (stereo partly shown) [compound 451]

IC50 (SETD2(1434-1711))	IC50 (H3K36me3 in A549 cells)	IC50 (H3K36me3 in A549 cells; Homo sapiens)	Compound
0.06 µM		5.7 µM	Cc1cccc2cc(C(=O)Nc3cccc(N4CCC(NCCN)CC4)c3)[nH]c12 [compound 452]
0.7 µM		5.8 µM	Cc1cccc2cc(C(=O)Nc3ccc4ccc(CN5CCN(C)CC5)cc4c3)[nH]c12 [compound 453]
2.8 µM		5.9 µM	Cc1ccc(F)c2cc(C(=O)Nc3cccc(S(N)(=O)=O)c3)[nH]c12 [compound 454]
0.4 µM		5.9 µM	Cc1cc(C(=O)N[C@@H]2CC[C@H]2N)cnc1C(NC(=O)c1cc2cccc(C)c2[nH]1)C1CC1 (stereo partly shown) [compound 455]
1.4 µM		6.1 µM	Cc1ccc(NC(=O)c2cc3cccc(C)c3[nH]2)cc1CN1CCOCC1 [compound 456]
2.2 µM		6.2 µM	Cc1ccc(F)c2cc(C(=O)NC3C(=O)NCc4ccccc43)[nH]c12 (stereo not shown) [compound 458]
1.5 µM	6.2 µM		Cc1cccc2cc(C(=O)Nc3ccc4nccn4c3)[nH]c12 [compound 459]
4.5 µM		6.2 µM	Cc1cccnc1C(CCC(=O)N1CCn2cncc2C1)NC(=O)c1cc2cccc(C)c2[nH]1 (stereo not shown) [compound 460]
0.5 µM	6.3 µM		COc1cccc(CNCC(O)COc2cnc(C(NC(=O)c3cc4cccc(C)c4[nH]3)C3CC3)c(C)c2)c1 (stereo not shown) [compound 461]
8.4 µM	6.6 µM		CCc1cccc2cc(C(=O)NC(CCC(=O)N3CCOCC3)c3ncccc3C)[nH]c12 (stereo not shown) [compound 464]
0.4 µM		6.6 µM	Cc1cccc2cc(C(=O)Nc3ccc4cnc(CN5CCN(C)CC5)cc4c3)[nH]c12 [compound 465]
1.9 µM	7 µM		Cc1cccc2cc(C(=O)Nc3ccc4cncnc4c3)[nH]c12 [compound 466]
0.4 µM		7.3 µM	Cc1cccc2cc(C(=O)Nc3cccc(N4CCN(CCN)CC4)c3)[nH]c12 [compound 467]
0.9 µM		7.5 µM	Cc1ccc(F)c2cc(C(=O)Nc3cccc(N4CCOCC4CN(C)C)c3)[nH]c12 (stereo not shown) [compound 468]
1.4 µM		7.9 µM	Cc1ccc(N2CCN(C)CC2)cc1NC(=O)c1cc2cccc(C)c2[nH]1 [compound 469]
0.6 µM		8 µM	Cc1cc(C(=O)NC2CCN(C)CC2)cnc1C(NC(=O)c1cc2cccc(C)c2[nH]1)C1CC1 (stereo not shown) [compound 470]
5.4 µM		8.5 µM	CCC(NC(=O)c1cc2cccc(C)c2[nH]1)c1ncccc1C (stereo not shown) [compound 471]
0.9 µM	8.5 µM		Cc1cc2ccccc2nc1C(NC(=O)c1cc2cccc(C)c2[nH]1)C1CC1 (stereo not shown) [compound 472]
0.2 µM	8.8 µM		Cc1cccc2cc(C(=O)Nc3ccc4nc(NC5CCNCC5)ncc4c3)[nH]c12 [compound 473]

Compound	IC50 (SETD2(1434-1711))	IC50 (H3K36me3 in A549 cells)	IC50 (H3K36me3 in A549 cells; Homo sapiens)
Cc1cc(CC(=O)N2CCN(C)CC2)cnc1C(NC(=O)c1cc2cccc(C)c2[nH]1)C1CC1 (stereo not shown) [compound 441]	4.4 µM	5.1 µM	
